One may read the IC50 as the concentration at which inhibition is half-maximal. Usually LD50 stands for the dose at which mortality reaches 50%.

Data set [1] concerns the target T1, Serotonin 4 (5-HT4) Receptors (Cavia porcellus, UniProt O70528).
T1 construct: the striatum was dissected; from tissue; host or cells: guinea pig (Std-Hartley) brain striatum, membrane fractions
The data set can be described thus: Binding Assay on Serotonin 4 (5-HT4) Receptors ([3H]-GR113808, striatum membrane fractions). On the set-up: species or system guinea pig (Std-Hartley). The conditions noted are these: 50% inhibition of specific binding of 0.1 nM [3H]-GR113808; 37° C., 30 min; test compounds are fumarates except numbers marked ** (62, 72, 74: free bases). The procedure:
Std-Hartley guinea pigs weighing 300-400 g were decapitated, and the brain thereof was immediately taken out, and the striatum was dissected. To the tissue thus obtained was added 15-times volume of Hepes buffer (50 mM, pH7.4, 4° C.), homogenized in a Teflon homogenizer, and centrifuged at 48,000×g at 4° C. for 15 minutes. The pellet was suspended in the same Hepes buffer in a volume of 1 ml per 30 mg of the wet tissues to give receptor membrane fractions.
The reaction was terminated by rapid vacuum filtration and washing (3×4 ml) with ice-cold 50 mM Tris-HCl buffer (pH 7.7) through Whatman GF/B filter paper using a Brandel cell harvester. Prior to the filtration, the filter to be used was presoaked in a 0.1% solution of polyethylenimine for one hour. The radioactivity on the filter was determined with by ACS-II scintillation cocktail by a liquid scintillation counter.

Data set [2] relates to Mice of Std-ddY strain (evacuation). The data set can be described thus: Assay on Evacuation in Mice (fecal pellets, oral). In kind it is in vivo, mouse (Std-ddY, male). On the set-up: key: -: Inactive; +: Moderately stimulated (P<0.05); ++: Markedly stimulated (p<0.01). The conditions noted are these: 1 mg/kg oral; fecal pellets at 30, 60 and 120 minutes; Dunnett's test; fumarates except numbers marked ** (25, 86: free bases). The protocol: Male mice of Std-ddY strain weighing 25-30 g were used. Free access to food and water was allowed up to the beginning of the procedure.
The mice (each group: five mice) were placed in a mesh bottom cage for fasting, and they were allowed for acclimation to new environment for about one hour prior to the start of the experiment. A test compound, which was previously suspended in the 0.5% tragacanth solution, was administered orally to the mice at a dose of 1 mg/kg. The fecal pellets were counted and collected at 30, 60 and 120 minutes after the treatment of a test compound, and weighed.
The statistical judgment of efficacy was carried out between the control group and the treated group, and determined by Dunnett's test.

Data set [3] is described as follows: Acute Toxicity (intravenous, lethality over 7 days). The conditions noted are these: mouse, in vivo, mice, observed for 7 days, read-out: 50% lethal dose (LD50). The protocol:
Male mice of Std-ddY strain weighing 25-30 g were used in a group of 5 animals. A test compound was suspended in physiological saline solution or 1% lactose solution and administered intravenously to the mice. […] The LD50 doses of the compounds of Examples 1, 10, 12, 18, 20, 21, 25 and 26 were all more than 100 mg/kg.

Another data set concerns dopamine D2 receptors. Conditions: background art; cited from earlier work.
The conditions of data set [4]: background art; cited from earlier work.
A further data set deals with 5-HT4 receptors. Conditions: background art, J. Pharmacol. Exp. Ther., 1990, 252, 1378; 1991, 257, 781; cited from earlier work.

T1 sequence (O70528 whole entry): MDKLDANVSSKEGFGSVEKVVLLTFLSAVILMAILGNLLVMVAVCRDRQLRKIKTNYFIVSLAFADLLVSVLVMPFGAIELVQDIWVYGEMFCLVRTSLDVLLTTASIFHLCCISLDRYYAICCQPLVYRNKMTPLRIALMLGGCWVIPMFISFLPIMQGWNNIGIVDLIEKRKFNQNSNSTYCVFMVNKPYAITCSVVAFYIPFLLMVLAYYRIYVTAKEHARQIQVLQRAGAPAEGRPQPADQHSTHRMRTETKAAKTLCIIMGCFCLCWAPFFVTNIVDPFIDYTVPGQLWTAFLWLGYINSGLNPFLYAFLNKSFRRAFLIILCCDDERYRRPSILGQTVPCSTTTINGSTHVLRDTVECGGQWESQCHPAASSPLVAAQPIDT

Molecule `Nc1c(Cl)cc(C(=O)NC2CCN(CC3CCN(C(=O)N4CCCC4)CC3)CC2)c2c1CCO2` [Example 21, 4-amino-5-chloro-N-[1-[1-(1-pyrrolidinecarbonyl)-4-piperidinylmethyl)-4-piperidinyl]-2,3-dihydrobenzo[b]furan-7-carboxamide] showed an IC50 in data set [1] of 2.4 nM. The “Effect (evacuation)” value in data set [2] is recorded as “++”. Moreover, the median lethal dose (LD50) at 168 h in data set [3] was above 100 mg/kg.
In the case of `COc1cc(N)c(Cl)cc1C(=O)N[C@H]1CCN(CCCOc2ccc(F)cc2)C[C@H]1OC` (relative stereo) [Comp. A, cis-4-amino-5-chloro-N-[1-[3-(4-fluorophenoxy)-propyl]-3-methoxy-4-piperidinyl]-2-methoxybenzamide], the “inhibitory effects on the central nervous system / dopamine D2 antagonism” value with dopamine D2 receptors is reported as “inhibitory effects on the central nervous system based on the antagonistic activity against dopamine D2 receptors”. Also, the “side effects on the heart” value in data set [4] is on record as “side effects on the heart”. The gastrointestinal motility entry in the data set with 5-HT4 receptors is “enhance the gastrointestinal motility by stimulating 5-HT4 receptors”.
`CCOc1cc(N)c(Cl)cc1C(=O)NC1CCN(CC2CCN(C(=O)N(C)C)CC2)CC1` [Example 25, 4-amino-5-chloro-N-[1-(1-dimethylcarbamoyl-4-piperidinylmethyl)-4-piperidinyl]-2-ethoxybenzamide]: the IC50 in data set [1] was 4.2 nM. Besides, the “Effect (evacuation)” value in data set [2] is given as “++”. Also, in data set [3], the median lethal dose (LD50) at 168 h is above 100 mg/kg.
Taken in the same sequence, the figures for `COc1cc(N)c(Cl)cc1C(=O)NC1CCN(CC2CCN(C(=O)N3CCCC3)CC2)CC1` [Example 12, 4-amino-5-chloro-2-methoxy-N-[1-[1-(1-pyrrolidinecarbonyl)-4-piperidinylmethyl]-4-piperidinyl]benzamide] were 8.7 nM, “++” and above 100 mg/kg.
Taken in the same sequence, the figures for `COc1cc(N)c(Cl)cc1C(=O)NC1CCN(CC2CCN(C(=O)N(C)C)CC2)CC1` [Example 1, 4-amino-5-chloro-N-[1-(1-dimethylcarbamoyl-4-piperidinylmethyl)-4-piperidinyl]-2-methoxybenzamide] were 11.9 nM, “++” and above 100 mg/kg.
As to `CCOc1cc(N)c(Cl)cc1C(=O)NC1CCN(CC2CCN(C(=O)CCOC)CC2)CC1` [Example 81, 4-amino-5-chloro-2-ethoxy-N-[1-[1-(3-methoxypropionyl)-4-piperidinylmethyl]-4-piperidinyl]benzamide], the IC50 in data set [1] was determined as 7.7 nM. Moreover, in data set [2], the “Effect (evacuation)” value was “++”.
In the case of `CCN(CC)CCNC(=O)c1cc(Cl)c(N)cc1OC` [metoclopramide], the gastrointestinal motility entry with 5-HT4 receptors is “enhance the gastrointestinal motility by stimulating 5-HT4 receptors”.
With `CN(C)C(=S)N1CCC(CN2CCC(NC(=O)c3cc(Cl)c(N)c4c3OCC4)CC2)CC1` [Example 20, 4-amino-5-chloro-N-[1-(1-dimethylthiocarbamoyl-4-piperidinylmethyl)-4-piperidinyl]-2,3-dihydrobenzo[b]furan-7-carboxamide], the IC50 in data set [1] amounted to 1.3 nM. In data set [2], the “Effect (evacuation)” value was “++”. In data set [3], the LD50 at 168 h is above 100 mg/kg.
Turning to `COc1cc(N)c(Br)cc1C(=O)NC1CCN(CC2CCN(C(=O)N(C)C)CC2)CC1` [Example 26, 4-amino-5-bromo-N-[1-(1-dimethylcarbamoyl-4-piperidinylmethyl)-4-piperidinyl]-2-methoxybenzamide], in data set [1], the IC50 turned out to be 11.5 nM. Also, in data set [2], the “Effect (evacuation)” value was “+”. Moreover, the LD50 at 168 h in data set [3] was above 100 mg/kg.
In data set [1], `CCN(CC)C(=O)N1CCC(CN2CCC(NC(=O)c3cc(Cl)c(N)c4c3OCC4)CC2)CC1` [Example 19, 4-amino-5-chloro-N-[1-(1-diethylcarbamoyl-4-piperidinylmethyl)-4-piperidinyl]-2,3-dihydrobenzo[b]furan-7-carboxamide] registered a half-maximal inhibitory concentration (IC50) of 2.7 nM. Further, the “Effect (evacuation)” value in data set [2] was “++”.
Turning to `COc1cc(N)c(Cl)cc1C(=O)NC1CCN(CC2CCN(C(=S)N(C)C)CC2)CC1` [Example 10, 4-amino-5-chloro-N-[1-(1-dimethylthiocarbamoyl-4-piperidinylmethyl)-4-piperidinyl]-2-methoxybenzamide], the IC50 in data set [1] came out at 8 nM. The “Effect (evacuation)” value in data set [2] is “++”. Moreover, the LD50 at 168 h in data set [3] was above 100 mg/kg.
Taken in the same sequence, the figures for `CN(C)C(=O)N1CCC(CN2CCC(NC(=O)c3cc(Cl)c(N)c4c3OCC4)CC2)CC1` [Example 18, 4-amino-5-chloro-N-[1-(1-dimethylcarbamoyl-4-piperidinylmethyl)-4-piperidinyl]-2,3-dihydrobenzo[b]furan-7-carboxamide] were 3.3 nM, “++” and above 100 mg/kg.
In data set [1], `CCC(=O)CN1CCC(CN2CCC(NC(=O)c3cc(Cl)c(N)cc3OC)CC2)CC1` [Example 86] had a 50% inhibitory concentration (IC50) of 8.3 nM. Also, in data set [2], the “Effect (evacuation)” value is given as “++”.
Taken in the same sequence, the figures for `CCOc1cc(N)c(Cl)cc1C(=O)NC1CCN(CC2CCN(C(=O)N(CC)CC)CC2)CC1` [Example 27, 4-amino-5-chloro-N-[1-(1-diethylcarbamoyl-4-piperidinylmethyl)-4-piperidinyl]-2-ethoxybenzamide] were 4.4 nM and “++”.
Taken in the same sequence, the figures for `CC(C)Oc1cc(N)c(Cl)cc1C(=O)NC1CCN(CC2CCN(C(=O)N(C)C)CC2)CC1` [Example 30, 4-amino-5-chloro-N-[1-(1-dimethylcarbamoyl-4-piperidinylmethyl)-4-piperidinyl]-2-isopropoxybenzamide] were 4.3 nM and “++”.

The values above are taken from US6294555A, “1-[(1-Substituted-4-piperidinyl)methyl]-4-piperidine derivative, process for producing the same, medicinal compositions containing the same and intermediates of these compounds” (Dainippon Pharmaceutical Co., Ltd., priority 1998, dated 2001).
